# Test results as given in patent US20230416248A1, “COMPOUNDS AND USES THEREOF” (Foghorn Therapeutics Inc., priority 2020, published 2023).
# Where two headings read alike, the source gives them in different places.
# Key:
# BRM = biological target: T1, BRM (Homo sapiens, UniProt P51531); assay: ATPase catalytic activity of BRM, ADP-Glo in vitro biochemical assay; conditions: for IC50: 30 nM BRM, 400 μM ATP; for Ratio* (BRG1 IC50 (μM) divided by BRM IC50 (μM)): selectivity ratio BRG1 IC50 / BRM IC50; for Ratio*: ratio of BRG1 IC50 to BRM IC50
# T1 construct: made in house; host or cells: High Five insect cells
# In short: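 ADP-Glo luminescence, after depletion of leftover ATP and conversion of ADP, reported the activity. The 1 h room-temperature reaction held 400 μM ATP, 20 nM salmon sperm DNA and 30 nM BRM in 20 mM Tris pH 8, 20 mM MgCl2, 50 mM NaCl, 0.1% Tween-20, 1 mM DTT.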
# BRG-1 = biological target: T2, BRG-1 (Homo sapiens, UniProt P51532); assay: ATPase catalytic activity of BRG-1, ADP-Glo in vitro biochemical assay; conditions: 30 nM BRG-1, 400 μM ATP, read-out: BRG1 IC50
# T2 construct: made in house; host or cells: High Five insect cells
# In short: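 Luminescence read-out: ADP formed by BRG-1 ATPase is converted to ATP and detected by luciferase. Residual ATP is first removed with ADP-Glo Reagent for 40 min at RT; detection reagent is then incubated 60 min at RT before reading.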
# [1] = ATPase catalytic activity, ADP-Glo
# T1 sequence (P51531 whole entry): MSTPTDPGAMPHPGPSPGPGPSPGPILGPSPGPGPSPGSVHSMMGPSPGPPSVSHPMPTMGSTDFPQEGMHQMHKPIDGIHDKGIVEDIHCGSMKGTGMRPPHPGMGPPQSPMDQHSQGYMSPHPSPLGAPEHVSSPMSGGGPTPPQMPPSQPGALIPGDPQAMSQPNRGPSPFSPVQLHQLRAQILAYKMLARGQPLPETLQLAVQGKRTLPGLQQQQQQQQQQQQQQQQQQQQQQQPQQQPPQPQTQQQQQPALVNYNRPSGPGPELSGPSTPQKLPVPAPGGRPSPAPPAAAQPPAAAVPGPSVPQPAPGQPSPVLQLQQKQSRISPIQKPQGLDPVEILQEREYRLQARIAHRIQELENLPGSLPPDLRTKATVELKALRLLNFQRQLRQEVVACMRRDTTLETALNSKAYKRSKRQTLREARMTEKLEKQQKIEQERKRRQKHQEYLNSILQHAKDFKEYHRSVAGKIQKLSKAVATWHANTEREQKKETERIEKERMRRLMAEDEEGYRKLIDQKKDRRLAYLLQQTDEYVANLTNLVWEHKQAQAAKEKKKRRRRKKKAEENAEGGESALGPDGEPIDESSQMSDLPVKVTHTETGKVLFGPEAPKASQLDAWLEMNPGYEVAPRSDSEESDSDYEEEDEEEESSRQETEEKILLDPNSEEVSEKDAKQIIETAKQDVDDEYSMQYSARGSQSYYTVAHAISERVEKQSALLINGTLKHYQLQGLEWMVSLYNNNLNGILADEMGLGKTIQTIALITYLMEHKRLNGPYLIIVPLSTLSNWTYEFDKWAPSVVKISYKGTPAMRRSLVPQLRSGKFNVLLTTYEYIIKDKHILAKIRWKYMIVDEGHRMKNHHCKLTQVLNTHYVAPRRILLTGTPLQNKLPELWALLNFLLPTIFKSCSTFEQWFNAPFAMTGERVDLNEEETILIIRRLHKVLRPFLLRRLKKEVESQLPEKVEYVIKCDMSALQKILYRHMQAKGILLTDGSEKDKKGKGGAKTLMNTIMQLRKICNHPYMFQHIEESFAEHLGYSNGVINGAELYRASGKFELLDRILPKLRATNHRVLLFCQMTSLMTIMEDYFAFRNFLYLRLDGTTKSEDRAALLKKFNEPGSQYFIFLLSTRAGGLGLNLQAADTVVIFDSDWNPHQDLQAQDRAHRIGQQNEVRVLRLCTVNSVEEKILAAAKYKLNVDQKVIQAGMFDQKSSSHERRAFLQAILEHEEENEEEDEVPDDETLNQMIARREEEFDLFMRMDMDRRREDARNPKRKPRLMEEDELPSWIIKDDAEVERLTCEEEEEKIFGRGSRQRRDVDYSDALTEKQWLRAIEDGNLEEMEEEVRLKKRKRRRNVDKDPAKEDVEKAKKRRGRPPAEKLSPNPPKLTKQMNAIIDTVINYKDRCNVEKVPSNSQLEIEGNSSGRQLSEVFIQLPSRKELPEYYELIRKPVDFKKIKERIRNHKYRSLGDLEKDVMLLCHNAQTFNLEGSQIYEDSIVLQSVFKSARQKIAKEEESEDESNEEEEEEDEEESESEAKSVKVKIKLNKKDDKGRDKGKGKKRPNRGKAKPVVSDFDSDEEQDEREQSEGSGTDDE
# T2 sequence (P51532 whole entry): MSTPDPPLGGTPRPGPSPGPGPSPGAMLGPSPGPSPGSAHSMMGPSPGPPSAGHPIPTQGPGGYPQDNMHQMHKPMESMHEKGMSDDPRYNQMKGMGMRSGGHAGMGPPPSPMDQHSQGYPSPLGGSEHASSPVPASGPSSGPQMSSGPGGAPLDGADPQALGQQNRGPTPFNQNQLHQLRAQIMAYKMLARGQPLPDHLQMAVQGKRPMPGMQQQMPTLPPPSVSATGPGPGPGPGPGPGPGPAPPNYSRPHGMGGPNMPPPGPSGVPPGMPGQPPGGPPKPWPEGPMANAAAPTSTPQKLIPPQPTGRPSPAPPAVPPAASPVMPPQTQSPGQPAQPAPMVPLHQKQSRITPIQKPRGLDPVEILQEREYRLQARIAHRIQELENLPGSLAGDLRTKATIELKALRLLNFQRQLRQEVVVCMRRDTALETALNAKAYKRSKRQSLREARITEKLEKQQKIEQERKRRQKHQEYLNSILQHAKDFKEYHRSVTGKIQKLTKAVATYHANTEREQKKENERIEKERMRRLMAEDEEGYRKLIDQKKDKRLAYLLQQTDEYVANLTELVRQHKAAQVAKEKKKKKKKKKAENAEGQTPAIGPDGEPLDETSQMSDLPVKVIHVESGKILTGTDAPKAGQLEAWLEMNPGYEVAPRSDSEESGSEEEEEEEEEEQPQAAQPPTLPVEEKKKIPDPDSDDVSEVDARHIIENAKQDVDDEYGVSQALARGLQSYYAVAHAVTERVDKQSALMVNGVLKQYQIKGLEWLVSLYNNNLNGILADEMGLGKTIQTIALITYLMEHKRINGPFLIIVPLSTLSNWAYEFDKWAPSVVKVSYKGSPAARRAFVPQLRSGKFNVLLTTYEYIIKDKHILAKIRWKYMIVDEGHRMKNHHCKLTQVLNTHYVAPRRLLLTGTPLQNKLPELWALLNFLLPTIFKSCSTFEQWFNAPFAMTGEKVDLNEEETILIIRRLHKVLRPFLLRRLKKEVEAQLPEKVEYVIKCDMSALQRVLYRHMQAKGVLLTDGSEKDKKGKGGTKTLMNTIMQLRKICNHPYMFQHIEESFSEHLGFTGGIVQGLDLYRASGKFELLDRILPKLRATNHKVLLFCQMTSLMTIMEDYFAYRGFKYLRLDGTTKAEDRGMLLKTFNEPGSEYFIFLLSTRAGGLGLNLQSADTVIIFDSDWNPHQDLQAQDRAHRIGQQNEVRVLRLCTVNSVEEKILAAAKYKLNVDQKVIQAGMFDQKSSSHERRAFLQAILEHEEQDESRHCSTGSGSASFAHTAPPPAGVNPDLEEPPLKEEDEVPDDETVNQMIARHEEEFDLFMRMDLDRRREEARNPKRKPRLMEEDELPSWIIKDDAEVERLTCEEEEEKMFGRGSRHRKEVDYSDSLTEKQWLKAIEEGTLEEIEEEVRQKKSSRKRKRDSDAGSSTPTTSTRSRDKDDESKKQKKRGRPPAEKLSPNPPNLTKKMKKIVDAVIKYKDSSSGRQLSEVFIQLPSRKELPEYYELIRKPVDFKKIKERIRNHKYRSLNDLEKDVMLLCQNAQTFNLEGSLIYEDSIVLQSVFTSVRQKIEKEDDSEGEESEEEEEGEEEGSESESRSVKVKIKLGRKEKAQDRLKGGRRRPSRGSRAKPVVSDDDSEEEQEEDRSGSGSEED
Compound,IC50 (BRM; ADP-Glo ATPase assay) [nM],Ratio* (BRG1 IC50 (μM) divided by BRM IC50 (μM)) (BRM),IC50 (BRG-1; ADP-Glo ATPase assay) [nM],IC50 (BRM; [1]) [nM],Ratio* (BRM),IC50 (BRG-1; [1]) [nM]
Cc1ccc(C(=O)NCc2cc3nc(-c4cncc(C5CC5)n4)ccc3cn2)cc1S(=O)(=O)N(C)C [Compound 283],197,17.67,3480,,,
CN(C)c1cccc(-c2ccc3cnc(CNC(=O)c4cc(F)c5c(c4)S(=O)(=O)CCOC5)cc3n2)n1 [Compound 284],12.1,14.69,178,,,
O=C(NCc1cc2nc(-c3cccc(OC(F)F)n3)ccc2cn1)c1ccc2c(c1)S(=O)(=O)CCOC2 [Compound 285],19.3,25.69,497,,,
N=S1(=O)CCOCc2ccc(C(=O)NCc3cc4nc(-c5cncc(C6CC6)n5)ccc4cn3)cc21 (stereo not drawn) [Compound 286],351,13.91,4890,,,
O=C(NCc1cc2nc(-c3cncc(C4CC4)n3)ccc2cn1)c1cc(F)c2c(c1)S(=O)(=O)CCOC2 [Compound 287],24.2,24.53,594,,,
CN(C)S(=O)(=O)c1cc(C(=O)NCc2cc3nc(-c4cncc(C5CC5)n4)ccc3cn2)ccc1Cl [Compound 288],197,17.58,3460,,,
CC(C)c1cccc(-c2ccc3cnc(CNC(=O)c4ccc5c(c4)S(=O)(=O)CCOC5)cc3n2)n1 [Compound 289],59.8,16.01,958,,,
O=C(NCc1cc2c(cn1)CCN(c1cncc(C3CC3)n1)C2)c1ccc2c(c1)S(=O)(=O)CCOC2 [Compound 290],172,7.19,1240,,,
[2H]C([2H])([2H])N(c1cccc(-c2ccc3cnc(CNC(=O)c4ccc5c(c4)S(=O)(=O)CCOC5)cc3n2)n1)C([2H])([2H])[2H] [Compound 291],10.3,9.47,97.2,,,
CS(=O)(=O)c1cc(C(=O)NCc2cc3nc(-c4cncc(C5CC5)n4)ccc3cn2)ccc1F [Compound 292],667,7.50,5000,,,
O=C(NCc1cc2nc(-c3cncc(C4CC4)n3)ccc2cn1)c1ccc2c(c1)S(=O)(=O)NCCC2 [Compound 293],223,10.84,2410,,,
CS(=O)(=O)c1cc(C(=O)NCc2cc3nc(-c4cncc(C5CC5)n4)ccc3cn2)ccc1Cl [Compound 294],156,17.37,2710,,,
CS(=O)(=O)c1cc(F)cc(C(=O)NCc2cc3nc(-c4cncc(C5CC5)n4)ccc3cn2)c1 [Compound 295],385,12.98,5000,,,
CC(C)S(=O)(=O)c1cccc(C(=O)NCc2cc3nc(-c4cncc(C5CC5)n4)ccc3cn2)c1 [Compound 296],316,15.84,5000,,,
CN1CCCc2ccc(C(=O)NCc3cc4nc(-c5cncc(C6CC6)n5)ccc4cn3)cc2S1(=O)=O [Compound 297],140,14.47,2030,,,
Cc1ncc(C(=O)NCc2cc3nc(-c4cncc(C5CC5)n4)ccc3cn2)cc1S(C)(=O)=O [Compound 298],221,9.90,2190,,,
O=C(NCc1cc2nc(-c3cncc(C4CC4)n3)ccc2cn1)c1ccc2c(c1)[S+]([O-])CCOC2 (stereo not drawn) [Compound 299],869,7.32,6360,,,

Compound,IC50 (BRM; ADP-Glo ATPase assay) [nM],Ratio* (BRG1 IC50 (μM) divided by BRM IC50 (μM)) (BRM),IC50 (BRG-1; ADP-Glo ATPase assay) [nM],IC50 (BRM; [1]) [nM],Ratio* (BRM),IC50 (BRG-1; [1]) [nM]
Cc1ccc(C(=O)NCc2cc3nc(-c4cncc(C5CC5)n4)ccc3cn2)cc1S(C)(=O)=O [Compound 300],64.7,11.32,733,,,
CN(C)S(=O)(=O)c1cccc(C(=O)NCc2cc3nc(-c4cncc(C5CC5)n4)ccc3cn2)c1 [Compound 301],858,10.34,8880,,,
O=C(NCc1cc2nc(-c3cncc(C4CC4)n3)ccc2cn1)c1ccc2c(c1)S(=O)(=O)CCCO2 [Compound 302],277,8.50,2350,,,
CN(C)c1cccc(-c2ccc3cnc(CNC(=O)c4ccc5c(c4)S(=O)(=O)CCOC5)cc3n2)n1 [Compound 303],12.3,12.63,156,,,
"O=C(NCc1cc2nc(-c3cccc(N4CCC4)n3)ccc2cn1)c1ccc2c(c1)S(=O)(=O)CCOC2 [Compound 304, N-[[2-[6-(azetidin-1-yl)-2-pyridyl]-1,6-naphthyridin-7-yl]methyl]-1,1-dioxo-3,5-dihydro-2H-4,1λ6-benzoxathiepine-8-carboxamide]",9.4,14.43,136,,,
O=C(NCc1cc2nc(-c3cncc(C4CC4)n3)ccc2cn1)c1ccc2c(c1)S(=O)(=O)CCOC2 [Compound 305],30,9.32,279,,,
CS(=O)(=O)c1cncc(C(=O)NCc2cc3nc(-c4cncc(C5CC5)n4)ccc3cn2)c1 [Compound 306],855,4.98,4250,,,
O=C(NCc1cc2nc(-c3cccc(N4CCCC(F)(F)C4)n3)ccc2cn1)c1ccc2c(c1)S(=O)(=O)CCOC2 [Compound 308],5.4,2.91,15.8,,,
COC[C@@H]1C[C@H]1N(C)c1cccc(-c2ccc3cnc(CNC(=O)c4ccc5c(c4)S(=O)(=O)CCOC5)cc3n2)n1 [Compound 311],,,,22,12.86,283
COC[C@H]1C[C@@H]1N(C)c1cccc(-c2ccc3cnc(CNC(=O)c4ccc5c(c4)S(=O)(=O)CCOC5)cc3n2)n1 [Compound 312],,,,24.5,13.30,326
COCCN1CCCOc2c(-c3ccc4cnc(CNC(=O)c5ccc6c(c5)S(=O)(=O)CCOC6)cc4n3)cccc21 [Compound 313],,,,105,3.69,387
CN(CC1(F)COC1)c1cccc(-c2ccc3cnc(CNC(=O)c4ccc5c(c4)S(=O)(=O)CCOC5)cc3n2)n1 [Compound 314],,,,45.7,10.51,480
Cc1ccc2c(n1)N(c1ccc3cnc(CNC(=O)c4ccc5c(c4)S(=O)(=O)CCOC5)cc3n1)CCC2 [Compound 315],,,,18.4,18.47,340
COc1cc(CC(F)F)ccc1-c1ccc2cnc(CNC(=O)c3ccc4c(c3)S(=O)(=O)CCOC4)cc2n1 [Compound 316],,,,47.1,10.49,495
C[C@]1(F)CCCN(c2cccc(-c3ccc4cnc(CNC(=O)c5ccc6c(c5)S(=O)(=O)CCOC6)cc4n3)n2)C1 [Compound 317],,,,6.3,5.55,34.8
C[C@@]1(F)CCCN(c2cccc(-c3ccc4cnc(CNC(=O)c5ccc6c(c5)S(=O)(=O)CCOC6)cc4n3)n2)C1 [Compound 318],,,,9.4,8.53,80.4
